Experimental data taken from paper PMC4263135, “A general strategy for developing cell-permeable photo-modulatable organic fluorescent probes for live-cell super-resolution imaging” (Nature Communications, 2014).
Where a SMILES comes first, the peptide text is derived from it. Side-chain parts run from the residue outwards. [ ]: non-standard residue; d: D form. The star is where a group is joined. FITC = O=C1OC2(c3ccc(O)cc3Oc3cc(O)ccc32)c2ccc(NC(=S)*)cc21; Ahx = NCCCCCC(=O)O

Columns and labels:
live BSC-1 cells = experiment: Intracellular distribution of probes by confocal microscopy (Trypan blue quench); type: cell-based, African green monkey (Cercopithecus aethiops); details: 37 °C
Protocol: For F-actin imaging, BSC-1 cells were seeded into cell culture dishes at a density of 1.5 × 10^4 per well in growth medium (MEM supplemented with 10% FBS, 200 μl). After an overnight incubation, the cells were washed with phosphate-buffered saline (PBS, pH 7.4) for three times. A solution of the indicated probe (15 μM, 200 μl) in PBS was then added, and the cells were incubated in a 5% CO2 atmosphere at 37 °C for the indicated (5, 10, 15 and 30 min) times as mentioned in the main text. The supernatant was then discarded, and a solution of Trypan blue (200 μl, 1 mg ml^−1) in PBS was added to quench the extracellular fluorescence of the probes that were bound to either the cell membrane or the dish surface. After 2 min, Trypan blue was removed, the cells were washed gently twice with PBS and immersed in growth medium prior to optical imaging.
The fluorescence signals were detected using a Fluoview FV1000 confocal laser scanning microscope (Olympus) equipped with a × 60/1.42 numerical aperture oil-immersion objective lens (FITC channel: excitation (EX) 488 nm, emission (EM) 510–530 nm; GFP channel: EX 488 nm, EM 508–532 nm; tdEosFP channel: EX 488 nm, EM 500–522 nm; RhB channel: EX 543 nm, EM 580–630 nm; FAM channel: EX 488 nm, EM 505–540 nm and LysoTracker Red channel: excitation (EX) 543 nm, emission (EM) 560–580 nm). All fluorescence images were analyzed with Image J software.

F-actin = details: cited from earlier work
Description: The non-fluorescent PA-RhB fluorophore has been reported to be switched on by ultraviolet light, to be thermally reverted to a dark state, and to be excited by 560-nm laser light, emitting optimally at 600 nm in fixed cells. However, it is unknown whether the live-cell environment changes the properties of PA-RhB and whether the PA-RhB fluorophore can be used for live-cell super-resolution imaging.

| time to enter the live cells efficiently (live BSC-1 cells; cell uptake, probe 15 μM in PBS, Trypan blue quench of extracellular fluorescence) [min] | Molecule | intracellular distribution (live BSC-1 cells; 15 μM in PBS, 5 to 30 min, confocal fluorescence) | affinity for F-actin in live cells (F-actin) |
| --- | --- | --- | --- |
| ≤ 5 | CC[C@H](C)[C@H](NC(=O)[C@H](CC(C)C)NC(=O)[C@H](CC(=O)O)NC(=O)[C@H](C)NC(=O)[C@@H](NC(=O)CNC(=O)[C@@H](N)CCSC)C(C)C)C(=O)N[C@@H](CCCCN)C(=O)N[C@@H](CCCCN)C(=O)N[C@@H](Cc1ccccc1)C(=O)N[C@@H](CCC(=O)O)C(=O)N[C@@H](CO)C(=O)N[C@H](C(=O)N[C@@H](CO)C(=O)N[C@@H](CCCCN)C(=O)N[C@@H](CCC(=O)O)C(=O)N[C@@H](CCC(=O)O)C(=O)NCC(=O)NCC(=O)NCC(=O)NCC(=O)N[C@@H](CCCCNC(=O)CCCCCNC(=S)Nc1ccc2c(c1)C(=O)OC21c2ccc(O)cc2Oc2cc(O)ccc21)C(=O)NCC(=O)NCC(=O)N[C@H](CCCNC(=N)N)C(=O)N[C@@H](CCCNC(=N)N)C(=O)N[C@H](CCCNC(=N)N)C(=O)N[C@@H](CCCNC(=N)N)C(=O)N[C@H](CCCNC(=N)N)C(=O)N[C@@H](CCCNC(=N)N)C(=O)N[C@@H](CCCNC(=N)N)C(=O)N[C@@H](CCCNC(=N)N)C(=O)O)[C@@H](C)CC [probe 1] (H-MGVADLIKKFESISKEEGGGGK([Ahx-FITC])GG[dR]R[dR]R[dR]RRR-OH) | diffuse localization throughout the cytoplasm | – |
| – | MGVADLIKKFESISKEE [Lifeact] | – | low affinity |
